Experimental data published in PubChem BioAssay (NCI).
Values joined by “and” are separate entries in the source; they are usually repeats but may differ in a detail not shown here. Equal entries are not always repeated.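 Briefly, cells in 96-well plates were exposed to five compound concentrations for 48 h, and endpoints were estimated by linear interpolation. Here, GI50 denotes the concentration required for 50% inhibition of growth. TGI is the concentration that stops growth completely.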

Assays:
Assay in all cases: NCI tumour cell line growth inhibition, 48 h
[1] = system: HS 578T breast
[2] = system: UACC-257 melanoma
[3] = system: MCF7 breast
[4] = system: NCI-H23 lung
[5] = system: LXFL 529 NSCLC
[6] = system: DU-145 prostate
[7] = system: HOP-62 NSCLC
[8] = system: UO-31 renal
[9] = system: HCC-2998 colon
[10] = system: M19-MEL melanoma
[11] = system: HOP-92 NSCLC
[12] = system: TK-10 renal
[13] = system: SK-MEL-5 melanoma
[14] = system: NCI-H226 lung
[15] = system: RPMI-8226 leukemia
[16] = system: SF-295 CNS
[17] = system: NCI/ADR-RES ovarian
[18] = system: BT-549 breast
[19] = system: M14 melanoma
[20] = system: SR leukemia
[21] = system: OVCAR-3 ovarian
[22] = system: EKVX NSCLC
[23] = system: OVCAR-4 ovarian
[24] = system: SK-MEL-28 melanoma
[25] = system: MDA-MB-435
[26] = system: HT29 colon
[27] = system: KM20L2 colon
[28] = system: KM12 colon
[29] = system: DMS 114 small cell lung
[30] = system: XF 498 CNS
[31] = system: MDA-MB-231 breast
[32] = system: HCT-116 colon
[33] = system: RXF-631 renal
[34] = system: 786-0 renal
[35] = system: U251 CNS
[36] = system: NCI-H522 lung
[37] = system: MDA-N
[38] = system: OVCAR-5 ovarian
[39] = system: PC-3 prostate
[40] = system: HCT-15 colon
[41] = system: RXF 393 renal
[42] = system: HOP-18 NSCLC
[43] = system: ACHN renal
[44] = system: DLD-1 colon
[45] = system: COLO 205 colon
[46] = system: SNB-78 CNS
[47] = system: OVCAR-8 ovarian
[48] = system: DMS 273 small cell lung
[49] = system: SF-268 CNS
[50] = system: T-47D breast
[51] = system: UACC-62 melanoma
[52] = system: SN12C renal
[53] = system: CCRF-CEM leukemia
[54] = system: MALME-3M melanoma
[55] = system: SNB-75 CNS
[56] = system: IGROV1 ovarian
[57] = system: CAKI-1 renal
[58] = system: SF-539 CNS
[59] = system: LOX IMVI melanoma
[60] = system: SNB-19 CNS
[61] = system: SK-OV-3 ovarian
[62] = system: HL-60(TB) leukemia
[63] = system: SW-620 colon
[64] = system: P388 leukemia
[65] = system: A549 NSCLC
[66] = system: SN12K1 renal
[67] = system: NCI-H460 lung

In the case of `Nc1ccc2cc3ccc(N)cc3nc2c1`, the TGI [1] is reported as 6.59 µM and 7.97 µM and 9.65 µM, the GI50 [2] is reported as 0.994 µM and the TGI [2] is reported as 5.03 µM [middle of 4 runs]. The GI50 [3] was 0.52 µM, the TGI [3] was 7.19 µM and 22.6 µM and 14.5 µM and the GI50 [4] was 1.58 µM [middle of 4 runs]. For the same compound, the TGI [5] was 10.3 µM, the GI50 [6] was 1.45 µM and the TGI [6] was 18.1 µM and 10 µM and 9.47 µM. The GI50 [7] was 0.795 µM, the GI50 [8] was 0.412 µM and the TGI [8] was 5.13 µM [middle of 4 runs]. The TGI [9] was 4.87 µM and 2.56 µM and 2.47 µM, the TGI [10] was 4.07 µM and the TGI [11] was 6.14 µM and 6.32 µM and 7.11 µM. For the same compound, the GI50 [12] was 0.513 µM, the TGI [13] was 2.74 µM and 4.33 µM and 2.93 µM and the TGI [14] was 4.3 µM [middle of 4 runs]. The TGI [15] was 4.77 µM and 5.01 µM and 6.42 µM, the GI50 [16] was 1.47 µM and the TGI [16] was 7.12 µM [middle of 4 runs]. The GI50 [17] was 1.21 µM, the TGI [17] was 5.25 µM and 5.26 µM and 11.2 µM and the GI50 [18] was 1.91 µM. For the same compound, the TGI [18] was 10.4 µM and 16.2 µM and 12 µM, the GI50 [19] was 1.77 µM [middle of 4 runs] and the TGI [20] was 14.1 µM and 2.1 µM and 6.96 µM. The GI50 [21] was 1.7 µM, the GI50 [22] was 0.64 µM and the TGI [22] was 10.6 µM and 6.53 µM and 7.66 µM. The GI50 [23] was 1.21 µM [middle of 4 runs], the TGI [23] was 4.23 µM [middle of 4 runs] and the TGI [24] was 5.11 µM [middle of 4 runs]. The TGI [25] was 4.37 µM and 4.04 µM, the TGI [26] was 9.02 µM [middle of 4 runs] and the TGI [27] was 6.61 µM. The GI50 [28] was 631 nM [middle of 4 runs], the TGI [28] was 6.73 µM [middle of 4 runs] and the TGI [29] was 3.03 µM. The TGI [30] was 5.8 µM, the TGI [31] was 7.94 µM and 5.03 µM and 8.4 µM and the TGI [32] was 10.8 µM [middle of 4 runs]. For the same compound, the TGI [33] was 4.41 µM, the GI50 [34] was 1.97 µM [middle of 4 runs] and the TGI [34] was 11.8 µM [middle of 4 runs]. For the same compound, the TGI [35] was 11.4 µM and 10.4 µM and 9.94 µM, the GI50 [36] was 0.295 µM and 0.542 µM and 0.824 µM and the TGI [36] was 1.31 µM and 2.82 µM and 2.87 µM. For the same compound, the TGI [37] was 3.79 µM and 2.77 µM, the GI50 [38] was 1.97 µM and the TGI [38] was 4.98 µM and 30.1 µM and 28.6 µM. For the same compound, the GI50 [39] was 0.857 µM and 1.96 µM and 1.5 µM, the TGI [39] was 4.88 µM and 24.7 µM and the GI50 [40] was 1.95 µM [middle of 4 runs]. The GI50 [41] was 2.03 µM and 1.36 µM and 0.565 µM, the TGI [41] was 5.83 µM and 3.15 µM and 1.97 µM and the TGI [42] was 8.41 µM. The GI50 [43] was 0.609 µM, the TGI [44] was 10.5 µM and the GI50 [45] was 0.936 µM. For the same compound, the TGI [46] was 9.23 µM, the GI50 [47] was 0.599 µM and the TGI [48] was 3.33 µM. For the same compound, the GI50 [49] was 1.12 µM, the TGI [49] was 10.2 µM [middle of 4 runs] and the TGI [50] was 14.9 µM and 9.61 µM and 8.53 µM. The TGI [51] was 3.73 µM [middle of 4 runs], the GI50 [52] was 1.18 µM and the GI50 [53] was 1.92 µM. The GI50 [54] was 1.16 µM [middle of 4 runs], the TGI [54] was 3.21 µM [middle of 4 runs] and the TGI [55] was 3.25 µM [middle of 4 runs]. For the same compound, the GI50 [56] was 2.07 µM [middle of 4 runs], the TGI [56] was 7.69 µM [middle of 4 runs] and the GI50 [57] was 0.723 µM. The GI50 [58] was 1.56 µM, the TGI [58] was 4.54 µM [middle of 4 runs] and the TGI [59] was 7.71 µM and 3.58 µM and 3.09 µM.
Compound `Nc1ccn(C2OC(CO)C(O)C2O)c(=O)c1` (stereo not given) has a TGI [60] greater than 625 µM, a TGI [3] greater than 625 µM and a TGI [4] greater than 625 µM. The TGI [7] was 403 µM, the TGI [8] was greater than 625 µM and the TGI [9] was greater than 625 µM. For the same compound, the TGI [11] was greater than 625 µM, the TGI [61] was greater than 625 µM and the TGI [13] was greater than 625 µM. The TGI [14] was greater than 625 µM, the TGI [15] was 524 µM and the TGI [16] was greater than 625 µM. It also gave a TGI [17] greater than 625 µM, a TGI [21] greater than 625 µM and a TGI [23] greater than 625 µM. It also gave a TGI [24] greater than 625 µM, a TGI [26] greater than 625 µM and a TGI [62] greater than 625 µM. The TGI [27] was greater than 625 µM, the TGI [28] was greater than 625 µM and the TGI [30] was less than 0.0625 µM. The TGI [32] was greater than 625 µM, the TGI [63] was greater than 625 µM and the TGI [35] was greater than 625 µM. The TGI [36] was greater than 625 µM, the TGI [64] was greater than 625 µM and the TGI [65] was greater than 625 µM. It also gave a TGI [66] greater than 625 µM, a TGI [40] greater than 625 µM and a TGI [41] greater than 625 µM. It also gave a TGI [42] greater than 625 µM, a TGI [44] greater than 625 µM and a TGI [45] greater than 625 µM. For the same compound, the TGI [46] was greater than 625 µM, the TGI [47] was greater than 625 µM and the TGI [48] was greater than 625 µM. It also gave a TGI [49] greater than 625 µM, a TGI [51] greater than 625 µM and a TGI [67] greater than 625 µM. For the same compound, the TGI [52] was 381 µM, the TGI [53] was greater than 625 µM and the TGI [54] was 365 µM. The TGI [55] was greater than 625 µM, the TGI [56] was greater than 625 µM and the TGI [57] was greater than 625 µM. The TGI [58] was greater than 625 µM and the TGI [59] was 446 µM.
